Measurements as given in patent EP4610269A1, “UROKINASE PLASMINOGEN ACTIVATOR SURFACE RECEPTOR (UPAR) LIGANDS FOR DIAGNOSTIC OR THERAPEUTIC USE” (3B Pharmaceuticals GmbH, priority 2024, dated 2025).
pIC50: −log10 of the molar value. Where a SMILES comes first, the peptide text is derived from it. Bridges are numbered along the chain shown (N, C = ends). [ ]: non-standard residue; d: D form. The star is where a group is joined. DOTA = O=C(O)CN1CCN(CC(=O)O)CCN(CC(=O)*)CCN(CC(=O)O)CC1; Phe(4-CONH2) = NC(=O)c1ccc(C[C@H](N)C(=O)O)cc1; Pro(cis-4-F) = O=C(O)[C@@H]1C[C@H](F)CN1; Hyp = O=C(O)[C@@H]1C[C@@H](O)CN1; Cit = NC(=O)NCCC[C@H](N)C(=O)O; Butoxycarbonyl = CCCCOC(=O)*; Orn = NCCC[C@H](N)C(=O)O; Nva = CCC[C@H](N)C(=O)O; AEEA = NCCOCCOCC(=O)O

Tests used:
[1] = target: T1, Recombinant soluble human NEP (Homo sapiens, UniProt P08473); test: Proteolytic stability assay against NEP; format: in vitro ADME; settings: recombinant soluble human NEP, human NEP 100 ng/mL, compound 10 µM, 37°C, LC-MS quantification, read-out: % intact compound remaining after 24h incubation
T1 construct: Recombinant soluble human NEP; purchased BioTechne, Wiesbaden, Germany
T1 sequence (P08473 52-750 limits assumed): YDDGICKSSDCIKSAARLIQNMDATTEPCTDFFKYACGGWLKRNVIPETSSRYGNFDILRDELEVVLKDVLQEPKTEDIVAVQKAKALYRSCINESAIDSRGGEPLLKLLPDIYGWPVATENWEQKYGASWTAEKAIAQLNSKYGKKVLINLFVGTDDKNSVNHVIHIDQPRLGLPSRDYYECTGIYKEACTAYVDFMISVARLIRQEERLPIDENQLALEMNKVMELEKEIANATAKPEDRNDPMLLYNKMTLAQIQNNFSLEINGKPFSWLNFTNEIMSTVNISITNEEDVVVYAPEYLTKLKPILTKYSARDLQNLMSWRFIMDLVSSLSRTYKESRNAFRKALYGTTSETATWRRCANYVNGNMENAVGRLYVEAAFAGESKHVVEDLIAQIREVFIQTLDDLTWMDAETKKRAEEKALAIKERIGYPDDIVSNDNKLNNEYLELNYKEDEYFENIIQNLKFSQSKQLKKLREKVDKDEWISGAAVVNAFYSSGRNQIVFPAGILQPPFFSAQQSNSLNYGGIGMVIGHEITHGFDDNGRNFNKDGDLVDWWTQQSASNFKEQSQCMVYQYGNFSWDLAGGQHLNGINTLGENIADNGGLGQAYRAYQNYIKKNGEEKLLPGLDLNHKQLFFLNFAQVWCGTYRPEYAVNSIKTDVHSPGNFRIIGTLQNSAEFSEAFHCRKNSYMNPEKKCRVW
Outline: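 Compound (10 µM) with internal standard (10 µM) incubated at 37°C with recombinant soluble human NEP at 100 ng/mL, sampled over time. LC-MS (positive ESI Q-TOF) quantified by matrix calibration against the internal standard. Value is % intact compound remaining after 24 h.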

[2] = target: T2, uPAR-expressing HEC-265 human endometrial adenocarcinoma cells (Homo sapiens, UniProt Q03405); test: Competitive FACS binding assay; settings: pIC50 category of FACS binding
T2 construct: Cell surface uPAR-expressing HEC-265 human endometrial adenocarcinoma cells; host or cells: HEC-265
T2 sequence (Q03405 23-335): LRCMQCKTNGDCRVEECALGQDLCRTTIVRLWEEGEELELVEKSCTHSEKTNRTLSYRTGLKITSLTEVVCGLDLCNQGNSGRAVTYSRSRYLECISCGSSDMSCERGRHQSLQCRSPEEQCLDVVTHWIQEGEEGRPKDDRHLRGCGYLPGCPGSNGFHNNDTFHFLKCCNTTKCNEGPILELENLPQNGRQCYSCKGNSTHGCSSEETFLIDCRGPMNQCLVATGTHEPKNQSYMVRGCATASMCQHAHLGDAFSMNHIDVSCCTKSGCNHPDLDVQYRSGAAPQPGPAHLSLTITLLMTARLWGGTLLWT
Outline: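 Competitive displacement of a 10 nM biotinylated peptide from HEC-265 cells (1 h, 4 °C, PBS/1% BSA), detected via APC-streptavidin by flow cytometry. pIC50 from four-parameter logistic fit of median fluorescence versus concentration.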

[3] = Plasma stability assay (human plasma); format: in vitro ADME; settings: human plasma (sodium citrate 3.7%), 37°C, LC-MS quantification, read-out: % intact compound remaining after 6h incubation Human plasma
Method: In order to determine the stability of selected compounds of the invention in human and mouse plasma, a plasma stability assay was carried out. Such plasma stability assay measures degradation of compounds of the present invention in blood plasma. This is an important characteristic of a compound as compounds, with the exception of pro-drugs, which rapidly degrade in plasma, generally show poor in vivo efficacy. […] The stability is sufficient for the diagnostic, therapeutic and theragnostic use of these compounds according to the present invention.
The plasma stability samples were prepared by spiking 50 µl plasma aliquots (all sodium citrate 3.7%) with 1 µl of a 0.5 mM compound stock solution in DMSO. After vortexing the samples were incubated in a Thermomixer at 37°C for 0 and 6 hours. After incubation the samples were stored on ice until further treatment. All samples were prepared in duplicates.
A suitable internal standard was added to each sample (1 µl of a 0.5 mM stock solution in DMSO). Protein precipitation was performed using two different methods depending on the compound conditions as indicated in Table 13. • A) 250 µl of acetonitrile containing 1% trifluoroacetic acid was added. […]
Quantitation was performed by external matrix calibration with internal standard using the integrated analyte signals.
Additionally, recovery was determined by spiking a pure plasma sample that only contained the internal standard after treatment with a certain amount of the compound.
Carry-over was evaluated by analysis of a blank sample (20% acetonitrile) after the highest calibration sample.
The result is stated as "% intact compound remaining after 6 h incubation" and means that from the amount of material at the start of the experiment the stated percentage is detected as unchanged material at the end of the experiment by LC-MS quantification. […]

Row | SMILES | remaining at 24 h, 10 µM [1] [%] | pIC50 [2] | remaining at 6 h, 9.8 µM [3] [%]
1 | CC[C@H](C)[C@@H]1NC(=O)[C@@H](C)NC(=O)[C@@H]2CCCN2C(=O)[C@H](Cc2ccccc2)NC(=O)[C@H](Cc2ccc(O)cc2)NC(=O)[C@H](CCC(N)=O)NC(=O)[C@H](CCCNC(N)=O)NC(=O)[C@@H](NC(=O)[C@H](CC(C)C)NC(=O)COCCOCCNC(=O)CN2CCN(CC(=O)O)CCN(CC(=O)O)CCN(CC(=O)O)CC2)CSSC[C@@H](C(N)=O)NC(=O)[C@H](CC(C)C)NC1=O [UPAR-245, DOTA-O2Oc-Leu-[Cys-Cit-Gln-Tyr-Phe-Pro-ala-Ile-Leu-Cys]-NH2] ({DOTA-AEEA}-LC[Cit]QYFP[dA]ILC-NH2; disulfide 2-11) | 72 | ≥ 8.00 | –
2 | CCCCOC(=O)N[C@H]1CSSC[C@@H](C(N)=O)NC(=O)[C@H](CCC)NC(=O)[C@H]([C@@H](C)CC)NC(=O)[C@@H]2C[C@@H](O)CN2C(=O)[C@@H]2C[C@H](F)CN2C(=O)[C@H](Cc2ccccc2)NC(=O)[C@H](Cc2ccc(C(N)=O)cc2)NC(=O)[C@H](CCCNC(=O)CN2CCN(CC(=O)O)CCN(CC(=O)O)CCN(CC(=O)O)CC2)NC(=O)[C@H]([C@@H](C)O)NC1=O [UPAR-276, Butoc-[Cys-Thr-Orn(DOTA)-Pcnf-Phe-4Cfp-Hyp-Ile-Nva-Cys]-NHz] (Butoxycarbonyl-CT[Orn](DOTA)[Phe(4-CONH2)]F[Pro(cis-4-F)][Hyp]I[Nva]C-NH2; disulfide 1-10) | 88 | ≥ 8.00 | > 95
